ChEMBL document CHEMBL1201862, “PubChem BioAssay data set” (2004)
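Following 48 hours of exposure in 96-well plates, responses at five concentrations were used to interpolate endpoints linearly. The concentration for 50% growth inhibition is given as GI50.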 Calls of active or inactive are those of the source. Cut-off read from the data, not from the text of the source: active = GI50 up to about 1.1 µM and inactive = higher.

How the values were obtained:
Assay in all cases: inhibition of tumour cell growth, NCI panel, 48 h
HT-29 = system: HT-29
RPMI-8226 = system: RPMI-8226
PC-3 = system: PC-3
K562 = system: K562
SK-MEL-28 = system: SK-MEL-28
COLO 205 = system: COLO 205
BT-549 = system: BT-549
NCI-H460 = system: NCI-H460
SF-295 = system: SF-295
SK-MEL-2 = system: SK-MEL-2
HOP-92 = system: HOP-92
HCT-116 = system: HCT-116
HOP-62 = system: HOP-62
ACHN = system: ACHN
OVCAR-4 = system: OVCAR-4
A498 = system: A498
LOX IMVI = system: LOX IMVI
SF-539 = system: SF-539
Hs-578T = system: Hs-578T

Row | SMILES | GI50 (HT-29) | GI50 (RPMI-8226) | GI50 (PC-3) | GI50 (K562) | GI50 (SK-MEL-28) | GI50 (COLO 205) | GI50 (BT-549) | GI50 (NCI-H460) | GI50 (SF-295) | GI50 (SK-MEL-2) | GI50 (HOP-92) | GI50 (HCT-116) | GI50 (HOP-62) | GI50 (ACHN) | GI50 (OVCAR-4) | GI50 (A498) | GI50 (LOX IMVI) | GI50 (SF-539) | GI50 (Hs-578T)
1 | CCOC(=O)Cn1c(C(F)(F)F)nc2nc(Cl)c(Cl)nc21 | 51.9 µM (inactive) | 6.58 µM (inactive) | 32.2 µM (inactive) | 26.7 µM (inactive) | 48.9 µM (inactive) | 40 µM (inactive) | 54.8 µM (inactive) | 27.9 µM (inactive) | 29 µM (inactive) | 24.7 µM (inactive) | 24.7 µM (inactive) | 38.9 µM (inactive) | 19.5 µM (inactive) | > 45.6 µM (inactive) | 15.2 µM (inactive) | 25.5 µM (inactive) | 38.1 µM (inactive) | > 55.7 µM (inactive) | 25 µM (inactive)
2 | C=C1CC/C=C(\C)CCC[C@H](C)[C@@H](O)[C@@H]2OC(=O)C(=C)[C@@H]2C[C@H]1O | 4.22 µM (inactive) | 3.52 µM (inactive) | 10 µM (inactive) | 2.99 µM (inactive) | 2.99 µM (inactive) | 2.83 µM (inactive) | 0.288 µM (active) | 8.99 µM (inactive) | 17.2 µM (inactive) | 13.3 µM (inactive) | 1.18 µM (inactive) | 6.47 µM (inactive) | 16 µM (inactive) | 2.73 µM (inactive) | 19.1 µM (inactive) | 66.4 µM (inactive) | 3.69 µM (inactive) | 2.27 µM (inactive) | 7.91 µM (inactive)
3 | CN(C)c1ccc(/C=N/c2nc3cc4sc(/N=C/c5ccc(N(C)C)cc5)nc4cc3s2)cc1 | 34.1 µM (inactive) | 19.1 µM (inactive) | > 100 µM (inactive) | 70.1 µM (inactive) | > 100 µM (inactive) | 4.75 µM (inactive) | 71 µM (inactive) | 5.4 µM (inactive) | > 100 µM (inactive) | > 100 µM (inactive) | > 100 µM (inactive) | 30.5 µM (inactive) | 55.7 µM (inactive) | 66.1 µM (inactive) | > 100 µM (inactive) | 26.7 µM (inactive) | 47.8 µM (inactive) | > 100 µM (inactive) | 18.1 µM (inactive)
4 | O=C(CCc1cc(O)cc(O)c1)NCCc1cc(OCc2ccccc2)cc(OCc2ccccc2)c1 | 14.8 µM (inactive) | 7.45 µM (inactive) | 8.89 µM (inactive) | 4.8 µM (inactive) | 17.5 µM (inactive) | 20.5 µM (inactive) | 16.4 µM (inactive) | 4.68 µM (inactive) | 10.4 µM (inactive) | 10.2 µM (inactive) | 17.1 µM (inactive) | 12.9 µM (inactive) | 16.4 µM (inactive) | 3.4 µM (inactive) |  | 21.2 µM (inactive) | 11.5 µM (inactive) | 16.2 µM (inactive) | 16.8 µM (inactive)
5 | CC(C)[Si](OCC/C=C/C1CCC(=O)C1C(O)C1CCCCC1)(C(C)C)C(C)C (configuration not stated) | 13.2 µM (inactive) | 13.7 µM (inactive) | 13.3 µM (inactive) | 17.2 µM (inactive) | 15.1 µM (inactive) | 16.3 µM (inactive) | 18.9 µM (inactive) | 17 µM (inactive) | 16 µM (inactive) | 12.9 µM (inactive) | 11.8 µM (inactive) | 14.7 µM (inactive) | 16.9 µM (inactive) | 14.8 µM (inactive) | 20.1 µM (inactive) | 18.3 µM (inactive) | 17.1 µM (inactive) | 19.8 µM (inactive) | 18.1 µM (inactive)
6 | O=C(/C=C/c1ccc([N+](=O)[O-])cc1)N1CCN(CCOC(c2ccc(F)cc2)c2ccc(F)cc2)CC1 | 13 µM (inactive) | 3.78 µM (inactive) | > 100 µM (inactive) | 4.99 µM (inactive) | > 100 µM (inactive) | 11.5 µM (inactive) | > 100 µM (inactive) | 11.3 µM (inactive) | 69.5 µM (inactive) | > 100 µM (inactive) | 6.58 µM (inactive) | 9.64 µM (inactive) | > 100 µM (inactive) | 4.34 µM (inactive) | 8.75 µM (inactive) | 16 µM (inactive) | 24.6 µM (inactive) | 45.9 µM (inactive) | > 100 µM (inactive)
7 | O=CC(I)=C(c1ccccc1)c1ccccc1 | 14 µM (inactive) | 8.51 µM (inactive) | 15.2 µM (inactive) | 18.5 µM (inactive) | 17.2 µM (inactive) | 18.3 µM (inactive) | 15.1 µM (inactive) | 17.5 µM (inactive) | 17.3 µM (inactive) | 16.9 µM (inactive) | 18.9 µM (inactive) | 14.2 µM (inactive) | 18.1 µM (inactive) | 20.7 µM (inactive) | 13.4 µM (inactive) | 20.7 µM (inactive) | 9.51 µM (inactive) | 23.2 µM (inactive) | 24.5 µM (inactive)
